In patent publication US10233188B2, “CDK2/4/6 inhibitors” (priority 2016, dated 2019) one finds Ki data, which are given here for 16 molecules.

Assay [1] addresses CDK2/Cyclin E1 (Homo sapiens (Human), UniProt P24941). The assay is described as follows: biochemical. The following applies: CDK2_Ki (nM), phosphorylated CDK2/Cyclin E1, 150 μM ATP, Morrison tight-binding fit.
Protocol: The assay was initiated with the addition of ATP, following a fifteen minutes pre-incubation of enzyme and inhibitor at room temperature in the reaction mixture. The reaction was stopped after 45 minutes at room temperature by the addition of 50 μL of 80 mM EDTA, pH 7.5.
Assay [2] has as its target CDK6/Cyclin D1 (Homo sapiens (Human), UniProt Q00534). Kind of assay: biochemical. Conditions: CDK6_Ki (nM), non-phosphorylated CDK6/Cyclin D1, 2 mM ATP, Morrison fit.

CDK6/Cyclin D1, sequence (Q00534 whole entry): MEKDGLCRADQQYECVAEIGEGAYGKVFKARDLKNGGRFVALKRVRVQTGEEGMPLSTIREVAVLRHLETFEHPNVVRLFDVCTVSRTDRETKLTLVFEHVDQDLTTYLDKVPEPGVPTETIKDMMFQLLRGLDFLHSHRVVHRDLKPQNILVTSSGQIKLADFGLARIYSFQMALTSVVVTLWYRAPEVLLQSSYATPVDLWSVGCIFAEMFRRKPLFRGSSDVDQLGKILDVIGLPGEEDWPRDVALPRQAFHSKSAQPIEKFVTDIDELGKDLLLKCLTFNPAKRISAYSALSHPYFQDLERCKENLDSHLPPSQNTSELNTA
CDK6/Cyclin D1, sequence (P24385 whole entry partner): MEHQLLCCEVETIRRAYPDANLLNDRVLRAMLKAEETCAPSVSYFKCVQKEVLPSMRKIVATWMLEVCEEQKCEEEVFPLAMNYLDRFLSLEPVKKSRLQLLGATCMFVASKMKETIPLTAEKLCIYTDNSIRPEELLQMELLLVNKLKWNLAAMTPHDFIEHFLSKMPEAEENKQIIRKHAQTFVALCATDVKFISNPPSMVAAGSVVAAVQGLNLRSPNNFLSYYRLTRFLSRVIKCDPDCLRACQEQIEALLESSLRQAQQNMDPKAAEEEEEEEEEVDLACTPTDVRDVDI

For orientation: Ki means the equilibrium dissociation constant of an inhibitor or competing ligand from its target. High values mean lower affinity, low ones higher affinity. For the molecule `C[C@]1(O)CCC[C@@H]1n1c(=O)c(Cl)cc2cnc(NC3CCN(S(N)(=O)=O)CC3)nc21` (single isomer, unassigned) [Example 129, (+)-4-({6-chloro-8-[(1R*,2R*)-2-hydroxy-2-methylcyclopentyl]-7-oxo-7,8-dihydropyrido[2,3-d]pyrimidin-2-yl}amino)piperidine-1-sulfonamide], the values for the Ki in assay [1] and in assay [2] were 1.47 nM and 5.73 nM, respectively.
As to `CNS(=O)(=O)N1CCC(Nc2ncc3cc(C(F)F)c(=O)n([C@@H]4CCC[C@@]4(C)O)c3n2)CC1` (single isomer, unassigned) [Example 130, (−)-4-({6-(difluoromethyl)-8-[(1R*,2R*)-2-hydroxy-2-methylcyclopentyl]-7-oxo-7,8-dihydropyrido[2,3-d]pyrimidin-2-yl}amino)-N-methylpiperidine-1-sulfonamide], the inhibitory constant (Ki) in assay [1] was 0.17 nM; in assay [2], 0.43 nM.
On the same counts, the results for `CNS(=O)(=O)N1CCC(Nc2ncc3cc(C(F)F)c(=O)n([C@H]4CCC[C@]4(C)O)c3n2)CC1` (single isomer, unassigned) [Example 131, (+)-4-({6-(difluoromethyl)-8-[(1R*,2R*)-2-hydroxy-2-methylcyclopentyl]-7-oxo-7,8-dihydropyrido[2,3-d]pyrimidin-2-yl}amino)-N-methylpiperidine-1-sulfonamide] are 3.24 nM and 23.1 nM.
Turning to `CS(=O)(=O)N1CCC(Nc2ncc3cc(C(F)F)c(=O)n([C@@H]4CC[C@@H](O)C4)c3n2)CC1` (single isomer, unassigned) [Example 133, (−)-6-(difluoromethyl)-8-[(1R*,3R*)-3-hydroxycyclopentyl]-2-{[1-(methylsulfonyl)piperidin-4-yl]amino}pyrido[2,3-d]pyrimidin-7(8H)-one], the Ki in assay [1] is 2.37 nM; in assay [2], 0.94 nM.
Take `CS(=O)(=O)N1CC[C@H](Nc2ncc3cc(CCO)c(=O)n(C4CCCC4)c3n2)[C@@H](F)C1` (single isomer, unassigned) [Example 156, (−)-8-cyclopentyl-2-{[(3S*,4S*)-3-fluoro-1-(methylsulfonyl)piperidin-4-yl]amino}-6-(2-hydroxyethyl)pyrido[2,3-d]pyrimidin-7(8H)-one]: the Ki was 1.4 nM in assay [1] and 1.94 nM in assay [2].
For `COCCc1cc2cnc(N[C@H]3CCN(S(C)(=O)=O)C[C@@H]3F)nc2n(C2CCCC2)c1=O` (single isomer, unassigned) [Example 158, (−)-8-cyclopentyl-2-{[(3S*,4S*)-3-fluoro-1-(methylsulfonyl)piperidin-4-yl]amino}-6-(2-methoxyethyl)pyrido[2,3-d]pyrimidin-7(8H)-one], the Ki in assay [1] was found to be 3.89 nM; in assay [2], 0.66 nM.
On the same counts, the results for `CS(=O)(=O)N1CC[C@H](Nc2ncc3cc(CC(N)=O)c(=O)n(C4CCCC4)c3n2)[C@@H](F)C1` (single isomer, unassigned) [Example 160, (−)-2-(8-cyclopentyl-2-{[(3S*,4S*)-3-fluoro-1-(methylsulfonyl)piperidin-4-yl]amino}-7-oxo-7,8-dihydropyrido[2,3-d]pyrimidin-6-yl)acetamide] are 4.07 nM and 3.55 nM.
On the same counts, the results for `Cc1cc2cnc(NC3CCN(S(C)(=O)=O)CC3)nc2n([C@@H]2CC[C@@H](O)C2)c1=O` (single isomer, unassigned) [Example 167, (−)-8-[(1R*,3R*)-3-hydroxycyclopentyl]-6-methyl-2-{[1-(methylsulfonyl)piperidin-4-yl]amino}pyrido[2,3-d]pyrimidin-7(8H)-one] are 1.47 nM and 1.63 nM.
Turning to `Cc1cc2cnc(NC3CCN(S(C)(=O)=O)CC3)nc2n([C@H]2CC[C@H](O)C2)c1=O` (single isomer, unassigned) [Example 168, (+)-8-[(1R*,3R*)-3-hydroxycyclopentyl]-6-methyl-2-{[1-(methylsulfonyl)piperidin-4-yl]amino}pyrido[2,3-d]pyrimidin-7(8H)-one], the Ki in assay [1] was found to be 1.31 nM; in assay [2], 1.34 nM.
On the same counts, the results for `CS(=O)(=O)N1CCC(Nc2ncc3cc(Cl)c(=O)n([C@H]4CC[C@H](O)C4)c3n2)CC1` (single isomer, unassigned) [Example 169, (+)-6-chloro-8-[(1R*,3R*)-3-hydroxycyclopentyl]-2-{[1-(methylsulfonyl)piperidin-4-yl]amino}pyrido[2,3-d]pyrimidin-7(8H)-one] are 2.76 nM and 1.11 nM.
On the same counts, the results for `CS(=O)(=O)N1CCC(Nc2ncc3cc(Cl)c(=O)n([C@@H]4CC[C@@H](O)C4)c3n2)CC1` (single isomer, unassigned) [Example 170, (−)-6-chloro-8-[(1R*,3R*)-3-hydroxycyclopentyl]-2-{[1-(methylsulfonyl)piperidin-4-yl]amino}pyrido[2,3-d]pyrimidin-7(8H)-one] are 6.03 nM and 1.82 nM.
On the same counts, the results for `CS(=O)(=O)N1CCC(Nc2ncc3cc(CC(F)F)c(=O)n([C@H]4CC[C@H](O)C4)c3n2)CC1` (single isomer, unassigned) [Example 171, (+)-6-(2,2-difluoroethyl)-8-[(1R*,3R*)-3-hydroxycyclopentyl]-2-{[1-(methylsulfonyl)piperidin-4-yl]amino}pyrido[2,3-d]pyrimidin-7(8H)-one] are 1.73 nM and 1.55 nM.
With `CS(=O)(=O)N1CCC(Nc2ncc3cc(CC(F)F)c(=O)n([C@@H]4CC[C@@H](O)C4)c3n2)CC1` (single isomer, unassigned) [Example 172, (−)-6-(2,2-difluoroethyl)-8-[(1R*,3R*)-3-hydroxycyclopentyl]-2-{[1-(methylsulfonyl)piperidin-4-yl]amino}pyrido[2,3-d]pyrimidin-7(8H)-one], the results for the Ki in assay [1] and in assay [2] were 4.38 nM and 2.08 nM, respectively.
On the same counts, the results for `CC(=O)c1c(C)c2cnc(NC3CCN(S(C)(=O)=O)CC3)nc2n([C@@H]2CCC[C@@]2(C)O)c1=O` (single isomer, unassigned) [Example 177, (−)-6-acetyl-8-[(1R*,2R*)-2-hydroxy-2-methylcyclopentyl]-5-methyl-2-{[1-(methylsulfonyl)piperidin-4-yl]amino}pyrido[2,3-d]pyrimidin-7(8H)-one] are 1.22 nM and 0.14 nM.
In the case of `C[C@@]1(O)CCC[C@H]1n1c(=O)c(CC(N)=O)cc2cnc(NC3CCN(S(C)(=O)=O)CC3)nc21` (single isomer, unassigned) [Example 179, (−)-2-(8-[(1R*,2R*)-2-hydroxy-2-methylcyclopentyl]-2-{[1-(methylsulfonyl)piperidin-4-yl]amino}-7-oxo-7,8-dihydropyrido[2,3-d]pyrimidin-6-yl)acetamide], the Ki in assay [1] amounted to 0.38 nM; in assay [2], 2.18 nM.
On the same counts, the results for `C[C@]1(O)CCC[C@@H]1n1c(=O)c(CC(N)=O)cc2cnc(NC3CCN(S(C)(=O)=O)CC3)nc21` (single isomer, unassigned) [Example 180, (+)-2-(8-[(1R*,2R*)-2-hydroxy-2-methylcyclopentyl]-2-{[1-(methylsulfonyl)piperidin-4-yl]amino}-7-oxo-7,8-dihydropyrido[2,3-d]pyrimidin-6-yl)acetamide] are 3.76 nM and 28.9 nM.
